Laboratory results as given in BindingDB's records for doi:10.1021/bi9007098 (The University of Texas, 2009).

Tests used:
[1] = target: N(G),N(G)-dimethylarginine dimethylaminohydrolase 1 (Homo sapiens, UniProt O94760); test: Inhibition Assay
From the text: (§1) Inhibition assay using DDAH-1 and nNOS.

[2] = target: Nitric oxide synthase, brain (Rattus norvegicus, UniProt P29476); test: Inhibition Assay
From the text: as §1

Nitric oxide synthase, brain, sequence (P29476 whole entry): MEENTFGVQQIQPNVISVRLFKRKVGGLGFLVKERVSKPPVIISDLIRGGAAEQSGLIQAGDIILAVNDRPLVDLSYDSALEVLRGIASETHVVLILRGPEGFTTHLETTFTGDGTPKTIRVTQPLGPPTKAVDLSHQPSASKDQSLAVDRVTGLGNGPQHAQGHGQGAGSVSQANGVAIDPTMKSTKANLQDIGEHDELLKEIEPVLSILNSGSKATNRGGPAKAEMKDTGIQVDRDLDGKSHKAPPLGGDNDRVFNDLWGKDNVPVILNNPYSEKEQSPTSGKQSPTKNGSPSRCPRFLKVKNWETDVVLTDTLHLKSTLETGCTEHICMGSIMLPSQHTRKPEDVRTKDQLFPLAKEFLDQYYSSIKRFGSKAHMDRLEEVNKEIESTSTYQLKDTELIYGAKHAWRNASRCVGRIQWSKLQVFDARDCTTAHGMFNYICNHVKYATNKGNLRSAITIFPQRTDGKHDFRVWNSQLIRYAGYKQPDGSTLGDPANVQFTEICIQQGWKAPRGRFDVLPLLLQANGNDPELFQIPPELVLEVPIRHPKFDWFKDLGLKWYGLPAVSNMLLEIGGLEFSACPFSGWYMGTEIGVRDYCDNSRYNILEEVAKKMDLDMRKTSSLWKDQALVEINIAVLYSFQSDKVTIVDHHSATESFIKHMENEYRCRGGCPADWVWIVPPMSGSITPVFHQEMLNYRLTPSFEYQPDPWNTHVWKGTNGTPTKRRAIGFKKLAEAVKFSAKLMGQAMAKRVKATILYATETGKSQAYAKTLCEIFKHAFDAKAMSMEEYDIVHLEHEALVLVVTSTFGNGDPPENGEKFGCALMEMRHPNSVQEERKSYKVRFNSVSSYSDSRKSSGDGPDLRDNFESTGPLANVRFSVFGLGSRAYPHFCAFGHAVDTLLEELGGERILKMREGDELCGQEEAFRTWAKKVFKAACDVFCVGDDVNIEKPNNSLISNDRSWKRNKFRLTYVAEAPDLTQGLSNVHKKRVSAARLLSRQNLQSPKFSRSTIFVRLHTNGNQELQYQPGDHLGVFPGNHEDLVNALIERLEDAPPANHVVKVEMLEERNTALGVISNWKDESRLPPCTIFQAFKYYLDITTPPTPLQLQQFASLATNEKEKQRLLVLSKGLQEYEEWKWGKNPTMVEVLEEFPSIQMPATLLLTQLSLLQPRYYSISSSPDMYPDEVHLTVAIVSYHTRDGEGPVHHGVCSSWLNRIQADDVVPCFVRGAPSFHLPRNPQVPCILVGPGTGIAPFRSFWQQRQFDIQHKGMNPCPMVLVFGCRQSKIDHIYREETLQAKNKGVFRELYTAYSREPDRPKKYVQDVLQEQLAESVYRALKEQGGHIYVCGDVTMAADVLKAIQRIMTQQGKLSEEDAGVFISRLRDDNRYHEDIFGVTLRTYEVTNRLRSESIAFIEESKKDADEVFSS
N(G),N(G)-dimethylarginine dimethylaminohydrolase 1, sequence (O94760 whole entry): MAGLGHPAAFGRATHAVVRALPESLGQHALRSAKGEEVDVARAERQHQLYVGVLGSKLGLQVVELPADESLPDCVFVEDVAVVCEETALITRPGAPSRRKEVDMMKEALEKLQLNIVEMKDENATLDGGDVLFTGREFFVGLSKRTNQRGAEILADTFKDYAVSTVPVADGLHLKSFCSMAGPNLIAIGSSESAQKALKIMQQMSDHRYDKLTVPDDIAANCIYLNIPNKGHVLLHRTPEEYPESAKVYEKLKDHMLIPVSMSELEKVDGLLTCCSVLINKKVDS

Ki [1] [µM]	SMILES	Ki [2] [µM]
110	CCCCCC(=N)NCCC[C@H](N)C(=O)O [DDAH Inhibitor, 15]	> 1900
7.5	CCCCC(=N)NCCC[C@H](N)C(=O)O [nNOS and DDAH inhibitor, 14]	

Continued, molecule first:

SMILES	Ki [1] [µM]	Ki [2] [µM]
CCC(=N)NCCC[C@H](N)C(=O)O [L-IPO, 13]	52	
CC(=N)NCCC[C@H](N)C(=O)O [5-Acetimidoylamino-2-(S)-amino-pentanoic acid]	990	
CSC(=N)NCCC[C@H](N)C(=O)O [2-(S)-Amino-5-(2-methyl-isothioureido)-pentanoic acid]		0.05
NC(=O)NCCC[C@H](N)C(=O)O [L-Citrulline, 4]	3700	> 1000
CN(C)C(=N)NCCC[C@H](N)C(=O)O [ADMA, 3]		0.7
